Experimental data taken from ChEMBL document CHEMBL1141021, “Anthranilimide-based glycogen phosphorylase inhibitors for the treatment of Type 2 diabetes: 2. Optimization of serine and threonine ether amino acid residues” (Bioorg Med Chem Lett, 2009).

Key:
Assay type in all cases: ADME, organism-based
Rattus norvegicus = experiment: Dose normalized AUC (0 to infinity) in Sprague-Dawley rat at 1 mg/kg, po; set-up: dose 1 mg/kg, route oral, time infinity; settings: in vivo
[1] = Clearance in Sprague-Dawley rat at 10 mg/kg, po or […], iv; settings: in vivo
[2] = Volume of distribution at steady state in Sprague-Dawley rat at 10 mg/kg, po or […], iv; settings: in vivo, read-out: Vdss
[3] = Half life in Sprague-Dawley rat at 10 mg/kg, po or […], iv; settings: in vivo
[4] = Oral bioavailability in Sprague-Dawley rat at 10 mg/kg; settings: in vivo

| AUC (Rattus norvegicus) [ng·h/mL] | clearance [1] [mL/min/kg] | Vd [2] [L/kg] | half-life [3] [h] | bioavailability [4] [%] | Compound |
| --- | --- | --- | --- | --- | --- |
| 320 | 4 | 0.6 | 2.8 | 8 | CCCC[C@H](NC(=O)c1cc2ccccc2cc1NC(=O)Nc1c(C)cc(C)cc1C)C(=O)O |
| 514 | 13 | 0.5 | 3 | 40 | Cc1cc(C)c(NC(=O)Nc2cc3ccccc3cc2C(=O)N[C@H](C(=O)O)[C@@H](C)OC(C)(C)C)c(C)c1 |
| 256 | 26 | 1.9 | 4 | 17 | Cc1cc(C)c(NC(=O)Nc2cc3ccccc3cc2C(=O)N[C@@H](COC(C)(C)C)C(=O)O)c(C)c1 |
